The target of one series is 3CLPro/Mpro of SARS-CoV (Severe acute respiratory syndrome coronavirus, UniProt P0C6X7). The following applies: cited from earlier work.
A further series deals with SARS-CoV PLP (Severe acute respiratory syndrome coronavirus, UniProt P0C6X7). The following applies: cited from earlier work.
Series [1] deals with peripheral blood mononuclear cells (PBMC). As to the kind of experiment: MTT cytotoxicity assay in PBMCs. The following applies: different concentrations, 24 h (FIG. 17). (Formazan colour is commonly taken as a measure of viable cells.)
In another series the test system is SARS-CoV-2 strain. The following applies: plaque reduction neutralization test; read-out: PRNT50; cited from earlier work. On the technique in general: Plaques are areas of infected cells; plaque reduction assays count them against a control.
Series [2] has as its target 3CLpro from the first SARS-CoV (Severe acute respiratory syndrome coronavirus, UniProt P0C6X7). The following applies: cited from earlier work.
The subject of series [3] is SARS-CoV-2 replicating virus in Vero cells. Conditions: virus replication; cited from earlier work.
For another series, the target named is PLP of SARS-CoV-2 (Severe acute respiratory syndrome coronavirus 2, UniProt P0DTD1). Conditions: cited from earlier work.
Series [4] relates to SARS-CoV-2 pseudotyped lentiviral vectors. The following applies: blocked entry of pseudotyped lentiviral vectors; cited from earlier work.
The target of the next series is SARS-CoV N protein (Severe acute respiratory syndrome coronavirus, UniProt P59595). The following applies: cited from earlier work.
In another series the test system is common cold. The following applies: after 7 days of treatment, 23 mg; placebo 46%; cited from earlier work.

The term Ki denotes the equilibrium dissociation constant of an inhibitor or competing ligand from its target. In general, IC50 refers to the concentration that gives 50% inhibition.

Sequence of SARS-CoV N protein (P59595 whole entry, looked up): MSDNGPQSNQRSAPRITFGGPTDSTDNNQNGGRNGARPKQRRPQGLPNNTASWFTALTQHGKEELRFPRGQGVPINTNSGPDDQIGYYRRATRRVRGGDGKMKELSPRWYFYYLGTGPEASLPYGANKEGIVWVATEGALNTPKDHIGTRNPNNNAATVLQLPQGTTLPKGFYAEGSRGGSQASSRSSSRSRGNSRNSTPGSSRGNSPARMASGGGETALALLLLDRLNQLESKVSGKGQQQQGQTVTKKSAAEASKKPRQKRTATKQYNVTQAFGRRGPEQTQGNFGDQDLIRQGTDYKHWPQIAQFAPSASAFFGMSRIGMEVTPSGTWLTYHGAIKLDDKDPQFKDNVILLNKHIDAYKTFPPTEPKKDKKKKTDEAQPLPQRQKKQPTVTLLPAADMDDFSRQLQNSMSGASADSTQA

As for `[Zn+2]` [Zn^2+], the Ki at 3CLPro/Mpro of SARS-CoV is 1100 nM. In addition, on SARS-CoV PLP, the IC50 is 1300 nM.
On to `[Ni]` [Ni], for which the “effects on the activity of PLP” value at SARS-CoV PLP is reported as “no effects”.
Turning to `[Ca+2]` [Ca], the “effects on the activity of PLP” value at SARS-CoV PLP was “no effects”.
Consider `[Mg]` [Mg], for which, on SARS-CoV PLP, the “effects on the activity of PLP” value is reported as “no effects”.
Consider Epigallocatechin-3-gallate [EGCG], for which, in series [1], the cell viability result is “a decrease in viability”. Also, the EC50 with SARS-CoV-2 strain was 200 nM. The IC50 in [2] was 73 µM; in series [3], 1.73 µg/mL; in series [4], 2.47 µg/mL. The “inhibition of the recombinant 3CLpro/Mpro” value in [2] was “over 85%”. On PLP of SARS-CoV-2, the “binding affinity to PLP core structure” value was “highest binding affinity”.
For the molecule (−)-gallocatechin gallate, the IC50 on SARS-CoV N protein is 0.05 µg/mL.
Take Zinc gluconate: the subjects asymptomatic with common cold is 86%.
Turning to `[Mn]` [Mn], on SARS-CoV PLP, the “effects on the activity of PLP” value was “no effects”.
For the molecule `[Co+2]` [Co], the “effects on the activity of PLP” value at SARS-CoV PLP is reported as “no effects”.
In the case of N-ethyl-N-phenyl-dithio-carbamate-Zinc, the IC50 on SARS-CoV PLP was 3300 nM.

Source of the values: US12171782B2 (priority 2020, dated 2024).
